Assay results: PubChem BioAssay AID2384 (Southern Research Specialized Biocontainment Screening …, 2010)
Values joined by “and” are separate entries in the source; they are usually repeats but may differ in a detail not shown here. Identical values can stand only once.

Each compound was assayed on S. typhi GFP reporter counter-screen, fluorescence, 4 h (assay: S. typhi counter-screen signal inhibition – fluorescence, 4 h, counter-screen for PhoP regulon inhibitor project, dose response (AID 2384)).

Q: With `C#CCOCCOCCOCCNc1nc(N2CCN(C(=O)CCCCCCCCCCNC(=O)Cn3cc(CCCCCN)nn3)CC2)nc(N2CCN(C(=O)CCCCCCCCCCNC(=O)[C@H]([C@@H](C)CC)n3cc(CCCCCN)nn3)CC2)n1` as the compound, how does the IC50 read?
A: 38.8 µM

Q: `COc1ccccc1C(C[N+](=O)[O-])c1c(N)n(C)c(=O)n(C)c1=O` (stereo not given) was tested. Which IC50 did it give?
A: 38.5 µM

Q: `O=C(Nc1ccccc1)Oc1ccc[nH]c1=O` was tested. Which IC50 did it give?
A: 52.9 µM

Q: How did the IC50 turn out when `O=c1cc(-c2ccccc2)cc(-c2ccccc2)n1O` was run?
A: 32.3 µM

Q: `Cc1cc(/C=C\c2ccc3cc(N(C)C)ccc3[n+]2C)c(C)n1-c1ccccc1` was tested. Which IC50 did it give?
A: 21.7 µM

Q: With `CCSc1ccc2c(c1)N(CCCN1CCN(C)CC1)c1ccccc1S2` as the compound, how does the IC50 read?
A: 71.2 µM

Q: How did the IC50 turn out when `CN1CCN(C2Cc3cc(F)ccc3Sc3ccc(Cl)cc32)CC1` (stereo not given) was run?
A: 34.6 µM

Q: `CN1CCN(CC(=O)N2CCn3c4c(c5cc(C6CCCCC6)ccc53)CCCC42)CC1` (stereo not given) was tested. Which IC50 did it give?
A: 36.9 µM

Q: Which IC50 does the source give for `O=C(Nc1ccccc1)Nc1nccs1` here?
A: 96 µM

Q: Which IC50 does the source give for `O=C1CSC(=S)N1c1cccnc1` here?
A: 78.8 µM

Q: With `Cc1ccc2oc(=O)c(/C=C(\O)c3ccccc3)nc2c1` as the compound, how does the IC50 read?
A: 64.2 µM

Q: For `CCN1CCN(C(=O)c2cc3cc(F)ccc3[nH]2)CC1`, which IC50 is on record?
A: 18.3 µM

Q: For `O=C(/C=C/c1ccccc1)c1ccc(NC2=NCCCS2)cc1`, which IC50 is on record?
A: 67.3 µM

Q: For `C#CCOCCOCCOCCNc1nc(N2CCN(C(=O)CCCCCCCCCCNC(=O)[C@H](CCCCN)n3cc(C)nn3)CC2)nc(N2CCN(C(=O)CCCCCCCCCCNC(=O)[C@H](CCCN=C(N)N)n3cc(C[C@@H](C)CC)nn3)CC2)n1`, which IC50 is on record?
A: 20.7 µM

Q: `CSc1ccc2c(c1)C(N1CCN(C)CC1)Cc1ccc(F)cc1S2` (stereo not given) was tested. Which IC50 did it give?
A: 23.9 µM

Q: Which IC50 does the source give for `NC1=NC[C@H](Cc2ccc(O)cc2)N1CCC12CC3CC(CC(C3)C1)C2` here?
A: 37.7 µM

Q: With `CCCCc1ccc(N/C(N)=N/c2nc(C)cc(C)n2)cc1` as the compound, how does the IC50 read?
A: 52.3 µM

Q: For `CN(C)[C@@H]1C(=O)C(C(N)=O)=C(O)[C@@]2(O)C(=O)C3=C(O)c4c(O)cccc4[C@@](C)(O)C3[C@H](O)C12` (stereo not given in full), which IC50 is on record?
A: 0.31 µM and 1.78 µM

Q: For `CO/N=C(/C(=O)N[C@@H]1C(=O)N2C(C(=O)O)=CCS[C@H]12)c1cnc(N)s1`, which IC50 is on record?
A: 27 µM

Q: With `CNCCCC1Sc2ccccc2Oc2ccccc21` (stereo not given) as the compound, how does the IC50 read?
A: 46.4 µM

Q: With `CC(/C=N/Nc1nc2ccccc2[nH]1)=C\c1ccccc1` as the compound, how does the IC50 read?
A: 77.8 µM

Q: For `O=C(Nc1c2ccccc2nc2ccccc12)C(Cl)(Cl)Cl`, which IC50 is on record?
A: 79.8 µM

Q: Which IC50 does the source give for `CCOC(=O)N1CCN(C(=O)c2cn(CC)c3cc(N4CCN(C)CC4)c(F)cc3c2=O)CC1` here?
A: 20.3 µM

Q: With `Cc1cc(NC2CCCCC2)nc(NCc2ccccc2)n1` as the compound, how does the IC50 read?
A: 36.1 µM

Q: How did the IC50 turn out when `CCCCCCCCCCOC(=O)Cn1c(COc2ccccc2C)[n+](C)c2ccccc21` was run?
A: 10.4 µM

Q: How did the IC50 turn out when `CCCCC(CC)CN=C(N)NC(N)=NCCCCCCN=C(N)NC(N)=NCC(CC)CCCC` (stereo not given) was run?
A: 4.65 µM

Q: How did the IC50 turn out when `COc1ccc(OCc2n(CC(=O)OC3CC(C)CCC3C(C)C)c3ccccc3[n+]2C)cc1` (stereo not given) was run?
A: 36.6 µM

Q: Which IC50 does the source give for `CN(O)/C=c1/ccc2c(n1)C(=O)C=CC=2` here?
A: 19.5 µM

Q: For `Nc1cccc2c(=O)c3ccccc3[nH]c12`, which IC50 is on record?
A: 37.6 µM

Q: Which IC50 does the source give for `CC(NCc1ccc(-c2ccccc2)cc1)C(O)c1ccccc1` (stereo not given) here?
A: 39 µM

Q: How did the IC50 turn out when `COc1ccc(Cl)cc1C(=O)C1CCCN(CCO)C1` (stereo not given) was run?
A: 56.2 µM

Q: How did the IC50 turn out when `CCn1cc(C(=O)O)c(=O)c2ccc(C)nc21` was run?
A: 83.7 µM

Q: Which IC50 does the source give for `Cc1ccc(Cn2c(=N)n(CC(O)COc3ccccc3)c3ccccc32)cc1` (stereo not given) here?
A: 37.9 µM

Q: How did the IC50 turn out when `Clc1ccc(C[n+]2cc(-c3ccc(Cl)cc3)n3c2CCC3)cc1` was run?
A: 37.7 µM

Q: Which IC50 does the source give for `Clc1ccc(Nc2ccc(NCc3ccccc3)nn2)cc1` here?
A: 90.7 µM

Q: `CCOc1cccc(CNCCc2c(C)[nH]c3ccc(OC(F)(F)F)cc23)c1O` was tested. Which IC50 did it give?
A: 31.2 µM

Q: `CC(=O)NNC(=S)NC(=O)c1ccccc1` was tested. Which IC50 did it give?
A: 18 µM

Q: Which IC50 does the source give for `CCCCCCCCC[n+]1cccc2c3ccccc3ccc21` here?
A: 15.1 µM

Q: With `Cc1ccc(S(=O)(=O)NNc2ccccc2)c(C)c1` as the compound, how does the IC50 read?
A: 42.7 µM

Q: Which IC50 does the source give for `CN1CC(C(=O)c2ccc(Cl)cc2)C(c2ccc(Cl)cc2Cl)C1` (stereo not given) here?
A: 23.6 µM

Q: How did the IC50 turn out when `C(=N\Nc1ccccn1)/c1cccnc1` was run?
A: 30.1 µM

Q: For `CN1CCN(c2ccc(NC(=O)c3ccc(-c4ccc(Br)cc4)o3)cc2)CC1`, which IC50 is on record?
A: 19.6 µM

Q: `Oc1ccc(Cl)cc1Cc1cc(Cl)ccc1O` was tested. Which IC50 did it give?
A: 27.7 µM

Q: `CCCc1nnc(NC(=O)c2cn(CC)c3cc(N4CCN(C)CC4)c(F)cc3c2=O)s1` was tested. Which IC50 did it give?
A: 61.6 µM

Q: `O=C1NCCCC1C(=O)N/N=C/c1cc([N+](=O)[O-])ccc1O` (stereo not given) was tested. Which IC50 did it give?
A: 67.2 µM

Q: For `CCCCCCCCCCCCCCCC[N+](C)(C)C`, which IC50 is on record?
A: 19.3 µM

Q: `CCOc1ccc(Nc2nc(N)c3ccccc3n2)cc1` was tested. Which IC50 did it give?
A: 44.4 µM

Q: Which IC50 does the source give for `C#CCOCCOCCOCCNc1nc(N2CCN(C(=O)[C@H]([C@@H](C)CC)n3cc([C@@H](N)Cc4ccc(O)cc4)nn3)CC2)nc(N2CCN(C(=O)[C@H](Cc3cc4ccccc4[nH]3)n3cc([C@@H](N)CC(C)C)nn3)CC2)n1` here?
A: 27.2 µM

Q: How did the IC50 turn out when `O=C(CNC(=O)c1cccc(F)c1)N/N=C/c1ccc([N+](=O)[O-])s1` was run?
A: 36.9 µM

Q: How did the IC50 turn out when `Oc1cccc(Nc2nc(NCC3CCCO3)c3ccccc3n2)c1` (stereo not given) was run?
A: 38.1 µM

Q: How did the IC50 turn out when `O=CN/N=C/c1c(O)ccc2ccccc12` was run?
A: 33.1 µM

Q: For `CC[C@H]1OC(=O)C[C@@H](O)[C@H](C)[C@@H](O[C@@H]2O[C@H](C)C[C@H](N(C)C)[C@H]2O)[C@@H](CC=O)C[C@@H](C)C(=O)C=C[C@]2(C)O[C@H]2[C@@H]1C`, which IC50 is on record?
A: 3.95 µM

Q: For `CN(C)CCNc1oc(COc2ccc(-c3ccccc3)cc2)nc1C#N`, which IC50 is on record?
A: 39 µM

Q: `Cc1cc(C)n(/N=C/c2cc(Cl)cc(Cl)c2O)c(=O)c1` was tested. Which IC50 did it give?
A: 101 µM

Q: `O=C(/C=C/c1ccccc1)NC(=S)NNC(=O)c1cnccn1` was tested. Which IC50 did it give?
A: 20.9 µM
